From US9695192B2, “Fused heterocyclic compounds as ion channel modulators” (GILEAD SCIENCES, INC., priority 2011, dated 2017)

These compounds were tested against wild-type human cardiac sodium channel, hNav1.5 (Homo sapiens, UniProt Q14524) (assay: Late INa screening assay (QPatch whole cell patch clamp, tefluthrin-enhanced late sodium current)). Details: HEK293 hNav1.5, late INa activated with 10 μM Tefluthrin.
wild-type human cardiac sodium channel, hNav1.5, sequence (Q14524 whole entry): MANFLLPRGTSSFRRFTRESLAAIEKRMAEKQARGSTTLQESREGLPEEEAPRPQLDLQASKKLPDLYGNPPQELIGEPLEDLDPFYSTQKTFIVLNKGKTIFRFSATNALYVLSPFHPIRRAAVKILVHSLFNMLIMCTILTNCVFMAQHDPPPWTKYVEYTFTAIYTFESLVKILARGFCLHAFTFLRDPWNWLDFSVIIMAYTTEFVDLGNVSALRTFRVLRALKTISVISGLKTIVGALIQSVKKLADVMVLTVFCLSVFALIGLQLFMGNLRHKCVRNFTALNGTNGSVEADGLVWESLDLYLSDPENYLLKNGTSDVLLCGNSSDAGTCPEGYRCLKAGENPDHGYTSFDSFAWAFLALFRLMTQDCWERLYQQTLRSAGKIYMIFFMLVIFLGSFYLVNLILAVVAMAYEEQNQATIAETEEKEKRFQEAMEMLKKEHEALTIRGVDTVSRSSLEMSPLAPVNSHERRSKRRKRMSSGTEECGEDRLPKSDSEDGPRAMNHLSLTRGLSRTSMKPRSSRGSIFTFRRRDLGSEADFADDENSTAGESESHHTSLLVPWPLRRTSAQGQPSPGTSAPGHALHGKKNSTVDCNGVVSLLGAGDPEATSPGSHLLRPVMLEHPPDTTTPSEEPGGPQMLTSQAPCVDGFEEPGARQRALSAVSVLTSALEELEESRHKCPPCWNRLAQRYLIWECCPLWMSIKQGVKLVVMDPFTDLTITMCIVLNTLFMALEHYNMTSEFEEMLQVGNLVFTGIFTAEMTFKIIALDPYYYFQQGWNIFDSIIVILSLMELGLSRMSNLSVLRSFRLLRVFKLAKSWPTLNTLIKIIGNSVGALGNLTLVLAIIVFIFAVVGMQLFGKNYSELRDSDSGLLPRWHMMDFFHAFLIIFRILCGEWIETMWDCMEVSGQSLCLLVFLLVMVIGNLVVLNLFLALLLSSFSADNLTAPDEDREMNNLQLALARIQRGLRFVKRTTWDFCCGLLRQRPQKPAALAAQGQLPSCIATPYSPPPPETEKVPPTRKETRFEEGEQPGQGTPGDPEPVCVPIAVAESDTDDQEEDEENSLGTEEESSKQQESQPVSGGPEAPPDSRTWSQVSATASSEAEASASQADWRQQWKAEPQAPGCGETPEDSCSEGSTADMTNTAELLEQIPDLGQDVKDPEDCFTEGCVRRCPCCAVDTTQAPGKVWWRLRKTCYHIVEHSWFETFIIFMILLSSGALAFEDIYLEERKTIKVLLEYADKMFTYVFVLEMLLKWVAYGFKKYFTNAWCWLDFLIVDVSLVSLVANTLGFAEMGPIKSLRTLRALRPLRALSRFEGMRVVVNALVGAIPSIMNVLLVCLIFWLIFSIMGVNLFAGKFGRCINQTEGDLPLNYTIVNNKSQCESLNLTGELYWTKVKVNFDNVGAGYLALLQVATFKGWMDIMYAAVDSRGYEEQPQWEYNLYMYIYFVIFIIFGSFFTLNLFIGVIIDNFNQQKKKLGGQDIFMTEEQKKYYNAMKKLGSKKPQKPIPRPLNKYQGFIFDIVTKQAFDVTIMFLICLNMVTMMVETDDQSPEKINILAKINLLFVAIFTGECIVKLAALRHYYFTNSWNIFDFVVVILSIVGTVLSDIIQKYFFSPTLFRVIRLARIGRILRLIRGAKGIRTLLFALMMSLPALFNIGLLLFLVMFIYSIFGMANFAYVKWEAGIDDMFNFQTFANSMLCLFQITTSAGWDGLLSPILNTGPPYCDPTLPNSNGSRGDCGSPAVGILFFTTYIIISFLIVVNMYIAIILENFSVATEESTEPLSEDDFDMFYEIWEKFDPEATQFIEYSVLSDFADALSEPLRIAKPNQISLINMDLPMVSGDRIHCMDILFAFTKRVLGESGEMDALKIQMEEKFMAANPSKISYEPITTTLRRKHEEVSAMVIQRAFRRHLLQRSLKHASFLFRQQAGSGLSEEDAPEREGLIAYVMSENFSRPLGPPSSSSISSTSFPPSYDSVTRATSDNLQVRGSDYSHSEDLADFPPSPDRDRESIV
Assay type: cell-based
Procedure: The late sodium current (Late INa) and peak sodium current (Peak INa) assays are performed on an automated electrophysiology platform, QPatch 16X (Sophion Bioscience, Copenhagen, Denmark), which uses the whole cell patch clamp technique to measure currents through the cell membrane of up to 16 cells at a time. The assay uses an HEK293 (human embryonic kidney) cell line heterologously expressing the wild-type human cardiac sodium channel, hNav1.5, purchased from Millipore (Billerica, Mass.). No beta subunits were coexpressed with the Na channel alpha subunit. Cells are maintained with standard tissue culture procedures and stable channel expression is maintained with 400 μg/mL Geneticin in the culture medium. Cells isolated for use on QPatch are incubated for 5 minutes in Detachin 1X (Genlantis, San Diego, USA) at 37° C. to ensure that 80-90% of the cells are single and not part of a cell cluster. Experiments are carried out at 23-25° C.
For both the Late INa and Peak INa assays, series resistance compensation is set to 100% and series resistance and whole-cell compensation are performed automatically. Currents are digitized at 25 kHz and low-pass filtered at 12 kHz and 10 kHz for the late and peak INa assays, respectively. Currents through open sodium channels are automatically recorded and stored in the Sophion Bioscience Oracle database (Sophion Bioscience, Copenhagen, Denmark). Analysis is performed using QPatch Assay and database software and data are compiled in Excel.
Compound stocks are routinely made by the Gilead Sample Bank in plastic vials to 10 mM in dimethyl sulfoxide (DMSO). In some cases, when compounds are not soluble in DMSO, they are made in 100% ethanol. Stocks are sonicated as necessary. The extracellular solution for screening Late INa is composed of: 140 mM NaCl, 4 mM KCl, 1.8 mM CaCl2, 0.75 mM MgCl2 and 5 mM HEPES with pH adjusted to 7.4 using NaOH. The intracellular solution used to perfuse the inside of the cells for both the Late INa and Peak INa assays contains: 120 mM CsF, 20 mM CsCl, 5 mM EGTA, 5 mM HEPES and pH adjusted to 7.4 with CsOH. Compounds are diluted in extracellular solution to 1 μM in glass vials and then transferred to glass well plates before robotic addition to the cells. A 0 mM Na extracellular solution (0 Na-ECF) is used at the end of each experiment for the Late INa and Peak INa assays to measure baseline current contains: 140 mM N-methyl-D-glucamine; 4 mM KCl; 1.8 mM CaCl2; 0.75 mM MgCl2; 5 mM HEPES and pH was adjusted to 7.4 with HCl.
For the hNav1.5 Late INa assay, sodium channels are activated every 10 seconds (0.1 Hz) by depolarizing the cell membrane to −20 mV for 250 milliseconds (ms) from a holding potential of −120 mV. In response to a −20 mV voltage step, typical hNav1.5 sodium currents activate rapidly to a peak negative current and then inactivate nearly completely within 3-4 ms.
Compounds were tested to determine their activity in blocking the late sodium current. Late INa was generated by adding 10 μM Tefluthrin (pyrethroid) to the extracellular solution while recording Na currents. To confirm the block of late INa observed using the automated screening method, a second late INa enhancer (ATX-II) and the manual patch clamp method were used. ATX-II and tefluthrin occupy distinct, non-overlapping binding sites and modify Na^+ channel function differently to increase late INa. Compounds tested have been found generally to inhibit the enhanced late INa caused by either late INa enhancer. For the purposes of the screening, late INa is defined as the mean current between 225 ms and 250 ms after stepping to −20 mV to activate Na channels. After establishing the whole cell recording configuration, late INa activator is added to each well 4 times over a 16-17 minute period so that the late component of the Na current reaches a stable value. Compounds were then added (typically at 1 μM), in the presence of the late INa activator, with 3 additions over the course of 7 or 8 minutes. […]
In the case of `CN(C)[C@@H]1CCN(C2=NCCOc3ccc(-c4ccc(C(F)(F)F)cc4)cc32)C1` [II-51, (R)—N,N-dimethyl-1-(7-(4-(trifluoromethyl)phenyl)-2,3-dihydrobenzo[f][1,4]oxazepin-5-yl)pyrrolidin-3-amine], the inhibition at 1 µM is reported as 21%.
With `OC(CN[C@@H]1CCN(C2=NCCOc3ccc(-c4ccc(C(F)(F)F)cc4)cc32)C1)COc1cccc2ccccc12` (stereo partly drawn) [II-61, 1-(naphthalen-1-yloxy)-3-((R)-1-(7-(4-(trifluoromethyl)phenyl)-2,3-dihydrobenzo[f][1,4]oxazepin-5-yl)pyrrolidin-3-ylamino)propan-2-ol] the inhibition at 1 µM was 12%.
`FC(F)(F)c1ccc(-c2ccc3c(c2)-c2nc(C4CC4)cn2CCO3)cc1` [Compound I-20, 2-cyclopropyl-10-(4-(trifluoromethyl)phenyl)-5,6-dihydrobenzo[f]imidazo[1,2-d][1,4]oxazepine] showed an inhibition at 1 µM of 12%.
Compound `FC(F)(F)c1ccc(-c2ccc3c(c2)C(N2CCOCC2)=NCCO3)cc1` [II-1, 5-morpholino-7-(4-(trifluoromethyl)phenyl)-2,3-dihydrobenzo[f][1,4]oxazepine] has an inhibition at 1 µM of 21%.
`Cc1nnc2n1CCOc1ccc(-c3ccc(C(F)(F)F)cc3)cc1-2` [Compound I-4, 3-methyl-10-(4-(trifluoromethyl)phenyl)-5,6-dihydrobenzo[f][1,2,4]triazolo[4,3-d][1,4]oxazepine] gave an inhibition at 1 µM of 10%.
In the case of `N[C@H]1CCN(C2=NCCOc3ccc(-c4ccc(C(F)(F)F)cc4)cc32)C1` [II-56, (S)-1-(7-(4-(trifluoromethyl)phenyl)-2,3-dihydrobenzo[f][1,4]oxazepin-5-yl)pyrrolidin-3-amine], the inhibition at 1 µM is reported as 17%.
`CC(=O)c1cnc2n1CCOc1ccc(-c3ccc(C(F)(F)F)cc3)cc1-2` [Compound I-15, 1-(10-(4-(trifluoromethyl)phenyl)-5,6-dihydrobenzo[f]imidazo[1,2-d][1,4]oxazepin-3-yl)ethanone] gave an inhibition at 1 µM of 12%.
`FC(F)(F)c1ccc(-c2ccc3c(c2)C(NCc2cccc(C(F)(F)F)n2)=NCCO3)cc1` [II-25, 7-(4-(trifluoromethyl)phenyl)-N-((6-(trifluoromethyl)pyridin-2-yl)methyl)-2,3-dihydrobenzo[f][1,4]oxazepin-5-amine] was tested, and the inhibition at 1 µM was 20%.
`N#Cc1cnc2n1CCOc1ccc(-c3ccc(C(F)(F)F)cc3)cc1-2` [Compound I-16, 10-(4-(trifluoromethyl)phenyl)-5,6-dihydrobenzo[f]imidazo[1,2-d][1,4]oxazepine-3-carbonitrile] gave an inhibition at 1 µM of 1%.
In the case of `FC(F)(F)Oc1ccc(-c2ccc3c(c2)-c2ncc(C4CC4)n2CCO3)cc1` [Compound I-18, 3-cyclopropyl-10-(4-(trifluoromethoxy)phenyl)-5,6-dihydrobenzo[f]imidazo[1,2-d][1,4]oxazepine], the inhibition at 1 µM is reported as 20%.
In the case of `CCN(CC)[C@H]1CCN(C2=NCCOc3ccc(-c4ccc(C(F)(F)F)cc4)cc32)C1` [II-48, (S)—N,N-diethyl-1-(7-(4-(trifluoromethyl)phenyl)-2,3-dihydrobenzo[f][1,4]oxazepin-5-yl)pyrrolidin-3-amine], the inhibition at 1 µM is reported as 24%.
Work on `FC(F)(F)c1ccc(-c2ccc3c(c2)C(N2CCCC2c2ccccn2)=NCCO3)cc1` (centres unmarked) [II-58, 5-(2-(pyridin-2-yl)pyrrolidin-1-yl)-7-(4-(trifluoromethyl)phenyl)-2,3-dihydrobenzo[f][1,4]oxazepine] yielded an inhibition at 1 µM of 18%.
In the case of `Fc1cccnc1CNC1=NCCOc2ccc(-c3ccc(C(F)(F)F)cc3)cc21` [II-9, N-((3-fluoropyridin-2-yl)methyl)-7-(4-(trifluoromethyl)phenyl)-2,3-dihydrobenzo[f][1,4]oxazepin-5-amine], the inhibition at 1 µM is reported as 23%.
`O=C(O)c1cn2c(n1)-c1cc(-c3ccc(C(F)(F)F)cc3)ccc1OCC2` [Compound I-22, 10-(4-(trifluoromethyl)phenyl)-5,6-dihydrobenzo[f]imidazo[1,2-d][1,4]oxazepine-2-carboxylic acid] was tested, and the inhibition at 1 µM was 5%.
With `O=C(N[C@H]1CCN(C2=NCCOc3ccc(-c4ccc(C(F)(F)F)cc4)cc32)C1)c1ncccn1` [II-45, (S)—N-(1-(7-(4-(trifluoromethyl)phenyl)-2,3-dihydrobenzo[f][1,4]oxazepin-5-yl)pyrrolidin-3-yl)pyrimidine-2-carboxamide] the inhibition at 1 µM was 6%.
Compound `OC[C@H]1CCN(C2=NCCOc3ccc(-c4ccc(C(F)(F)F)cc4)cc32)C1` [II-16, (S)-(1-(7-(4-(trifluoromethyl)phenyl)-2,3-dihydrobenzo[f][1,4]oxazepin-5-yl)pyrrolidin-3-yl)methanol] has an inhibition at 1 µM of 13%.
`Cn1cncc1-c1cn2c(n1)-c1cc(-c3ccc(C(F)(F)F)cc3)ccc1OCC2` [Compound I-23, 2-(1-methyl-1H-imidazol-5-yl)-10-(4-(trifluoromethyl)phenyl)-5,6-dihydrobenzo[f]imidazo[1,2-d][1,4]oxazepine] showed an inhibition at 1 µM of 3%.
`CN[C@H]1CCN(C2=NCCOc3ccc(-c4ccc(C(F)(F)F)cc4)cc32)C1` [II-44, (S)—N-methyl-1-(7-(4-(trifluoromethyl)phenyl)-2,3-dihydrobenzo[f][1,4]oxazepin-5-yl)pyrrolidin-3-amine] was tested, and the inhibition at 1 µM was 9%.
Compound `C[C@H]1CN(C(=O)OC(C)(C)C)CCN1C1=NCCOc2ccc(-c3ccc(C(F)(F)F)cc3)cc21` [II-53, (S)-tert-butyl 3-methyl-4-(7-(4-(trifluoromethyl)phenyl)-2,3-dihydrobenzo[f][1,4]oxazepin-5-yl)piperazine-1-carboxylate] has an inhibition at 1 µM of 2%.
Compound `FC(F)(F)c1ccc(-c2ccc3c(c2)C(Nc2cccc(C(F)(F)F)n2)=NCCO3)cc1` [II-27, 7-(4-(trifluoromethyl)phenyl)-N-(6-(trifluoromethyl)pyridin-2-yl)-2,3-dihydrobenzo[f][1,4]oxazepin-5-amine] has an inhibition at 1 µM of 1%.
Work on `FC(F)(F)c1ccc(-c2ccc3c(c2)C(N2CCC(N4CCOCC4)C2)=NCCO3)cc1` (centres unmarked) [II-55, 5-(3-morpholinopyrrolidin-1-yl)-7-(4-(trifluoromethyl)phenyl)-2,3-dihydrobenzo[f][1,4]oxazepine] yielded an inhibition at 1 µM of 18%.
Compound `FC(F)(F)c1ccc(-c2ccc3c(c2)C(Nc2ccccn2)=NCCO3)cc1` [II-19, N-(pyridin-2-yl)-7-(4-(trifluoromethyl)phenyl)-2,3-dihydrobenzo[f][1,4]oxazepin-5-amine] has an inhibition at 1 µM of 43%.
With `CC(C)(C)OC(=O)N[C@H]1CCN(C2=NCCOc3ccc(-c4ccc(C(F)(F)F)cc4)cc32)C1` [II-13, (S)-tert-butyl 1-(7-(4-(trifluoromethyl)phenyl)-2,3-dihydrobenzo[f][1,4]oxazepin-5-yl)pyrrolidin-3-ylcarbamate] the inhibition at 1 µM was 15%.
`CN(C(=O)OC(C)(C)C)[C@H]1CCN(C2=NCCOc3ccc(-c4ccc(C(F)(F)F)cc4)cc32)C1` [II-40, (S)-tert-butyl methyl(1-(7-(4-(trifluoromethyl)phenyl)-2,3-dihydrobenzo[f][1,4]oxazepin-5-yl)pyrrolidin-3-yl)carbamate] gave an inhibition at 1 µM of 18%.
With `FC(F)(F)c1ccc(-c2ccc3c(c2)C(N2CCCC2)=NCCO3)cc1` [II-3, 5-(pyrrolidin-1-yl)-7-(4-(trifluoromethyl)phenyl)-2,3-dihydrobenzo[f][1,4]oxazepine] the inhibition at 1 µM was 25%.
Work on `O=C(c1ncccn1)N1CCC(NC2=NCCOc3ccc(-c4ccc(C(F)(F)F)cc4)cc32)C1` (centres unmarked) [II-35, pyrimidin-2-yl(3-(7-(4-(trifluoromethyl)phenyl)-2,3-dihydrobenzo[f][1,4]oxazepin-5-ylamino)pyrrolidin-1-yl)methanone] yielded an inhibition at 1 µM of 4%.
